Where a name gives a salt, the structure may show the parent alone. The source made the active and inactive calls.
How the values were obtained:
[1] = biological target: Cytochrome P450 2C19 (Homo sapiens, UniProt P33261); assay: Cytochrome panel assay with activity outcomes. Panel member name: p450-cyp2c19 Compounds with AC50 equal or less than 10 uM are considered active; assay type: functional
[2] = biological target: T1, Protein RecA (Mycobacterium tuberculosis, UniProt P9WHJ3); assay: Fluorescence Cell-Free Homogeneous Dose Retest to Identify Inhibitors of RecA-Intein Splicing Activity. [Related pubchem assays (depositor defined):AID2097, AID2223, AID489010, AID492950]; assay type: functional
T1 sequence (P9WHJ3 whole entry): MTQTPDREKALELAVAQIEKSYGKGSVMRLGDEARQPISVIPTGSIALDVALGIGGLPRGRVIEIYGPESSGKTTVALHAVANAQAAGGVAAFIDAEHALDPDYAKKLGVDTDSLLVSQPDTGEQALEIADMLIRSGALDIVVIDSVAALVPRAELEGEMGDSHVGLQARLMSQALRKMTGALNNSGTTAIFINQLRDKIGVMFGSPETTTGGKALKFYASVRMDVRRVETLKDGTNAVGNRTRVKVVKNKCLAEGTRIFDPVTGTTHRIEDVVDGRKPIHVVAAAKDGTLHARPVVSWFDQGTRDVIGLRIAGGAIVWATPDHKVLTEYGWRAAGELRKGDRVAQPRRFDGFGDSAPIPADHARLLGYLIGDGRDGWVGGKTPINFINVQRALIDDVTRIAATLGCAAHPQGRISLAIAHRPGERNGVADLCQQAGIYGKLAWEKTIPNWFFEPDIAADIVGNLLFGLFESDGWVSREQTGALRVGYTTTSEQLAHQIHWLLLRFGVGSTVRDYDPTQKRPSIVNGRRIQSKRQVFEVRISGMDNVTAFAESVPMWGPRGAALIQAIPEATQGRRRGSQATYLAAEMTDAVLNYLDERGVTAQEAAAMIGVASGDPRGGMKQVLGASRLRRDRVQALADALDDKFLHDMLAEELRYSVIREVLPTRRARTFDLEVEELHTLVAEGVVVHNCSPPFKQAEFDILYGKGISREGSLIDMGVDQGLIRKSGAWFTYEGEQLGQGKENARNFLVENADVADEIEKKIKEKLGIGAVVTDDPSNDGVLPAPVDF

[3] = biological target: T2, Replicative DNA helicase DnaB (Mycobacterium tuberculosis, UniProt P9WMR3); assay: DnaB intein splicing inhibitors, dose response, biochemical, cell-free fluorescence (AID 449749); assay type: functional
T2 sequence (P9WMR3 whole entry): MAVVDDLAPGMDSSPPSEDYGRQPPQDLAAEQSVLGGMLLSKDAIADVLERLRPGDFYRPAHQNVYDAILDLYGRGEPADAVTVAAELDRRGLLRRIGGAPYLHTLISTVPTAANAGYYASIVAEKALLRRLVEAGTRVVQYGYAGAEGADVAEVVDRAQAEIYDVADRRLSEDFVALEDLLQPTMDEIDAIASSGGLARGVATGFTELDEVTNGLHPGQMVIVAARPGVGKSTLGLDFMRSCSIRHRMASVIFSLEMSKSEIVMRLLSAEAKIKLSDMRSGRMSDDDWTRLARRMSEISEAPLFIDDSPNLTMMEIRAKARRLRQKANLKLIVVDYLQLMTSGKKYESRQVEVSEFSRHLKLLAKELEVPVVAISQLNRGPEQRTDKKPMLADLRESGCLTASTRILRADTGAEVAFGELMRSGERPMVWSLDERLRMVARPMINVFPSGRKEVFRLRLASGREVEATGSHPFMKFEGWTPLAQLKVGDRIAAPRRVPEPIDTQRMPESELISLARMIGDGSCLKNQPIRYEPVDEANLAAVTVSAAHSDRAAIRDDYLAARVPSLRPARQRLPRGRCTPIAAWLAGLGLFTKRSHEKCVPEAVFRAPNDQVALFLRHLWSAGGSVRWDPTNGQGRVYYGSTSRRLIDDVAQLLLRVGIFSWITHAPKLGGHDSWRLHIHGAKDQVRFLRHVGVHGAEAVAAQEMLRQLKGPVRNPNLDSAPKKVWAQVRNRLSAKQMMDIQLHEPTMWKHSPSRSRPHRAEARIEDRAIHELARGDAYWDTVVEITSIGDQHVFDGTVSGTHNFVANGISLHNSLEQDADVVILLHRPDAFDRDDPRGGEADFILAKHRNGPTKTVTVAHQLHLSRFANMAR

[4] = viability of uninfected HEp-2 cells – cell-based, HTS, cytotoxicity control for RSV inhibitor project, dose response (AID 2410); assay type: functional; conditions: human respiratory syncytial virus
[5] = Luminescence Cell-Based Dose Confirmation HTS to Identify Inhibitors of Platelet Dense Granule Release. [Related pubchem assays: 1663 (Primary HTS), 1678 (Summary of Project)]; assay type: functional
[6] = biological target: Luciferin 4-monooxygenase (Photinus pyralis, UniProt P08659); assay: inhibition of purified Photinus pyralis luciferase – biochemical, luminescence, dose response (AID 1891)
[7] = Trypanosoma cruzi growth suppression in host cells – NIH3T3 host cells, beta-gal luminescence, confirmation (AID 2044); assay type: functional, cell-based;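 note: intracellular parasites grown in NIH/3T3 mouse fibroblasts as host cells; luminescent beta-galactosidase reporter signal from transgenic T. cruzi replicating inside host cells; inhibitors lower the luminescence signal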
[8] = NIH3T3 cell viability loss – ATP luminescence, mouse fibroblasts, counter-screen, dose response (AID 2010); assay type: functional, cell-based;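 note: cells exposed to compound for about 90 hours before reading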
[9] = Luminescence Cell-Based Dose Retest to Confirm Inhibitors of Cancer Stem Cells. [Related pubchem assays (depositor defined):AID2717, AID2721]; assay type: functional; conditions: Homo sapiens
[10] = biological target: Cytochrome P450 2C9 (Homo sapiens, UniProt P11712)
[11] = biological target: Cytochrome P450 3A4 (Homo sapiens, UniProt P08684);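 note: CYP3A4 tested as one member of a cytochrome P450 panel screen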
[12] = test system: INS1; assay: INS-1E survival protection against cytokine death – cell-based, luminescence, retest, dose response (AID 449756); assay type: functional; conditions: Rattus norvegicus;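 note: cell death triggered by IL-1 beta plus TNF-alpha plus IFN-gamma mixture; protective hits raise ATP signal compared with cytokine alone wells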

Sequence of Cytochrome P450 3A4 (P08684 whole entry): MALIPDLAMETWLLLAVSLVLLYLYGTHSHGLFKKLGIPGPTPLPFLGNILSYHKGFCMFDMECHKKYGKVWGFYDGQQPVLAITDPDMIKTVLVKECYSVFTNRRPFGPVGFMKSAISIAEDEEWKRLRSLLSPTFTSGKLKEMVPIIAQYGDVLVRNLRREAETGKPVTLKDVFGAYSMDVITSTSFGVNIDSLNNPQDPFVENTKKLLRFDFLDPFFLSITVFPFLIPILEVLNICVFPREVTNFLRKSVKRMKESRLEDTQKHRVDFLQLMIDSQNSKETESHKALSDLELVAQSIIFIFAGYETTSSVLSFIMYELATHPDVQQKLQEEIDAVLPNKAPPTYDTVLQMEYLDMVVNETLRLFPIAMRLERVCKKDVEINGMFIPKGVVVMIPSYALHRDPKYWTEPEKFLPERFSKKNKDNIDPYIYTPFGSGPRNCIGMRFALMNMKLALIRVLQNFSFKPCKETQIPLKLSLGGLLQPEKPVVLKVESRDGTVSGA
Sequence of Luciferin 4-monooxygenase (P08659 whole entry): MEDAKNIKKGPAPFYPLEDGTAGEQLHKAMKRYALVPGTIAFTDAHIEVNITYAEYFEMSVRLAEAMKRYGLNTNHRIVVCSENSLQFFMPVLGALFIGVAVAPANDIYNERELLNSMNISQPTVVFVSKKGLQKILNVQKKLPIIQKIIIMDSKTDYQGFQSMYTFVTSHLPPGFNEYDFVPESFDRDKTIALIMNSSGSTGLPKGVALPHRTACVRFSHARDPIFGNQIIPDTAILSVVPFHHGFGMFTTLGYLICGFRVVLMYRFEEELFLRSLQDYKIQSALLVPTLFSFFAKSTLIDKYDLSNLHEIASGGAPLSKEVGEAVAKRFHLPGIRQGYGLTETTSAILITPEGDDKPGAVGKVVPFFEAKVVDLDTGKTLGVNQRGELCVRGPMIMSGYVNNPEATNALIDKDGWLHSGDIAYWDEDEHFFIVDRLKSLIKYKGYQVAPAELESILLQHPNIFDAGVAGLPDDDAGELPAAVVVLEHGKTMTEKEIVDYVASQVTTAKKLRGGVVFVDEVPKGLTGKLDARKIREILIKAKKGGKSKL
Sequence of Cytochrome P450 2C19 (P33261 whole entry): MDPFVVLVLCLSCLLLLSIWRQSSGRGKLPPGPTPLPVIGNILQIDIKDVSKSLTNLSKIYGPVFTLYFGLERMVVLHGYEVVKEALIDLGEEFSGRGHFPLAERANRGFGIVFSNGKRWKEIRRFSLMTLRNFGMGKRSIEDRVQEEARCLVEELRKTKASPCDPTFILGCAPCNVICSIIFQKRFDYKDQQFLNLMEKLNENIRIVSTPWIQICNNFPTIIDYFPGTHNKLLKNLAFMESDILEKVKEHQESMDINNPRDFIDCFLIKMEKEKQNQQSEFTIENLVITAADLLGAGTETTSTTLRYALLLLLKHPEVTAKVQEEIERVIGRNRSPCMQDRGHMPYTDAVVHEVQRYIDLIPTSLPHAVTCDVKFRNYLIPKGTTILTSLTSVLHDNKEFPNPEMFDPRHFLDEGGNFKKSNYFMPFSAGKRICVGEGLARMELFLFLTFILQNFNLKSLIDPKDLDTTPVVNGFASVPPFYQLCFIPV
Sequence of Cytochrome P450 2C9 (P11712 whole entry): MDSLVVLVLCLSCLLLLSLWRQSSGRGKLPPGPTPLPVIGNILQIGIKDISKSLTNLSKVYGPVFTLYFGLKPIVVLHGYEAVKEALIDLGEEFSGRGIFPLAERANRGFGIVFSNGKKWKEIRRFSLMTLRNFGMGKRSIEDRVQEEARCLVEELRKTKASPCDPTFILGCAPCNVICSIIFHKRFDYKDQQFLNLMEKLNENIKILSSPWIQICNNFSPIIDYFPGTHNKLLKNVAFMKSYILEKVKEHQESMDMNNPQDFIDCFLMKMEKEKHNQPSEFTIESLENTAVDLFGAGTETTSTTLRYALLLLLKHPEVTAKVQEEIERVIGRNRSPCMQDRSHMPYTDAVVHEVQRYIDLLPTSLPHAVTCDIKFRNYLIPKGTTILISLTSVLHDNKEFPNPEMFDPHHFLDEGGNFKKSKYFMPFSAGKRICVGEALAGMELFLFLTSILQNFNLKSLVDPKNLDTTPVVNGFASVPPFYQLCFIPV

CCOC(=O)c1cn(-c2nc(-c3ccc(Cl)cc3)cs2)c2c(F)c(N3CC(C)OC(C)C3)c(F)cc2c1=O (configuration not stated)
AC50 ([1]; read-out: AC50): 17.8 µM (inconclusive)

O=C(Oc1ccc(N(C(=O)c2ccncc2)S(=O)(=O)c2ccc(Cl)cc2)cc1)c1ccncc1
EC50 [2]: 16.4 µM (active)
AC50 [3]: 9.26 µM (active)

CCCNC(=O)c1c(N)n(Cc2ccco2)c2nc3ccccc3nc12
CC50 [4]: 29.8 µM (active)

COc1nc(C(=N)NO)nc(N2CCCCC2)n1
AC50 ([1]; read-out: AC50): 39.8 µM (inconclusive)

Cc1cc(C)n(C(=O)c2cccc(S(=O)(=O)N3CCCCC3)c2)n1
EC50 [5]: > 112 µM (not active)
EC50 [6]: > 112 µM (not active)

CCOC(=O)c1c(NC(=O)CSc2nc3cc(C)ccc3[nH]2)sc2c1CC(C)(C)NC2(C)C
EC50 [7]: 0.855 µM (active)
EC50 [8]: 18.6 µM (active)
AC50 [9]: 7.46 µM (active)

O=c1nc(-c2ccccc2)n(-c2ccccc2)c2ncccc12
AC50 ([1]; read-out: AC50): 22.4 µM (inconclusive)

CCn1c(S)nnc1-c1ccoc1C
AC50 ([1]; read-out: AC50): 28.2 µM (inconclusive)
AC50 [10]: 31.6 µM (inconclusive)

Cc1nc2cnc(Oc3ccccc3)nc2n(-c2ccccc2)c1=O
AC50 [11]: 25.1 µM (inconclusive)
AC50 [10]: 25.1 µM (inconclusive)

Cc1cc(/C=C2\C(=N)N3N=C(C(C)C)SC3=NC2=O)c(C)n1Cc1ccccc1
CC50 [4]: 21.5 µM (active)

COC(=O)[C@@]1(Cc2ccc(OC)cc2)[C@@H]2C(=CC(=O)[C@H]2CC(=O)C(=O)N(C)C)CN1C(=O)c1ccccc1
AC50 [11]: 2.51 µM (inconclusive)
AC50 [10]: 25.1 µM (inconclusive)

COc1ccc(-c2[nH]nc3c2C(c2ccncc2)C(C#N)=C(N)O3)cc1 (configuration not stated)
EC50 [2]: 2.26 µM (active)
AC50 [3]: 8.02 µM (active)

CC1CCCN(S(=O)(=O)c2ccc(NC(=O)c3cccc(-n4cnnn4)c3)cc2)C1 (configuration not stated)
CC50 [4]: 16.4 µM (active)

Cc1ccccc1-c1nc(N(C)Cc2ccco2)c2ccccc2n1
AC50 [11]: 25.1 µM (inconclusive)

FC(F)(F)c1nnc(-c2ccccc2)nc1Oc1ccc(Cl)cc1Cl
EC50 [2]: 0.481 µM (active)
CC50 [4]: 31.4 µM (active)
AC50 [3]: 1.44 µM (active)

Sc1nnc(-c2ccncc2)n1CC1CCCO1 (configuration not stated)
AC50 ([1]; read-out: AC50): 31.6 µM (inconclusive)
AC50 [11]: 22.4 µM (inconclusive)
AC50 [10]: 28.2 µM (inconclusive)

COC(=O)c1ccc(/C=C/c2c(-c3ccc(OC)cc3)oc3ccc(N4CCOCC4)cc23)cc1
AC50 [9]: 2 µM (active)

Cc1ccc(-c2nc(Nc3ccc(N4CCOCC4)cc3)c3ccccc3n2)cc1
CC50 [4]: 18.6 µM (active)

O=C(/C=C/c1ccco1)NCC1OCCc2ccccc21 (configuration not stated)
AC50 [9]: > 195 µM (inactive)

CCOC(=O)CSc1ncc(OC)c(Sc2ccc(Cl)cc2)n1
AC50 [11]: 25.1 µM (inconclusive)

C[Se]C[C@@H](N)C(=O)O
AC50 [1]: inconclusive
AC50 [11]: 1.26 µM (inconclusive)

COc1cc2cc(CN(CCCO)S(=O)(=O)c3ccccc3Cl)c(O)nc2cc1OC
AC50 ([1]; read-out: AC50): 39.8 µM (inconclusive)

O=C(Nc1ccc(S(=O)(=O)NCc2ccco2)cc1)c1ccc(F)cc1
EC50 [5]: > 112 µM (not active)
EC50 [6]: > 112 µM (not active)

O=C(COc1ccccc1)Nc1ccc(N2CCN(C(=O)c3ccco3)CC2)cc1
CC50 [4]: 23.6 µM (active)

Cc1cc(C(=O)CSc2ccc(F)cc2)cc(C)c1O
CC50 [4]: 22 µM (active)

COc1cccc(-c2nn(-c3ccccc3)cc2/C=C\C(=O)c2cccs2)c1
CC50 [4]: 24.3 µM (active)

N=C1O[C@@H](c2c[nH]c3ccc(OCc4ccccc4)cc23)C(O)=C1O
AC50 ([1]; read-out: AC50): 6.31 µM (inconclusive)
AC50 [11]: 3.16 µM (inconclusive)

CCOC(=O)c1c(CC(C)C)csc1NC=O
AC50 [11]: 22.4 µM (inconclusive)

CCOC(=O)C1CCCN(C(=O)C2CCN(S(=O)(=O)N3CCC4(CC3)OCCO4)CC2)C1 (configuration not stated)
AC50 ([1]; read-out: AC50): 35.5 µM (inconclusive)
AC50 [11]: 20 µM (inconclusive)

CCNc1ncc2nc(CCc3ccccc3)c(=O)n(CCOC)c2n1
AC50 [11]: 15.8 µM (inconclusive)

CCC(C)OC(=O)C1=C(C)OC23OC(N)=C(C#N)C12C(=O)c1ccccc13 (configuration not stated)
EC50 [5]: > 112 µM (not active)
EC50 [6]: > 112 µM (not active)

Cc1ccc(S(=O)(=O)Nc2ccc(C(OC(=O)c3ccccc3[N+](=O)[O-])(C(F)(F)F)C(F)(F)F)cc2)cc1
AC50 [12]: 14.3 µM (active)
AC50 [9]: 6.11 µM (active)

O=C(c1ccccc1NS(=O)(=O)c1cccc([N+](=O)[O-])c1)N1CCOCC1
AC50 [11]: 17.8 µM (inconclusive)
AC50 [10]: 7.94 µM (inconclusive)

C#CCOc1ccc(OC)cc1C(c1c(C)n[nH]c1O)c1c(C)n[nH]c1O
EC50 [2]: 0.187 µM (active)
AC50 [3]: 0.405 µM (active)

C[C@H](CO)N1C[C@H](C)[C@H](CN(C)Cc2ccc(-c3ccccc3)cc2)Oc2ccc(NS(=O)(=O)c3ccccc3)cc2CC1=O
AC50 [9]: 5.07 µM (active)

Cc1cccc(/N=C2\C(Cl)=C(O)OC2OC(=O)c2ccco2)c1 (configuration not stated)
EC50 [2]: 12.9 µM (active)
AC50 [3]: 13.8 µM (active)

CCOc1ccccc1/N=N/c1c(C)[nH]n(C(N)=S)c1=O
CC50 [4]: 33.1 µM (active)

O=C(Nc1ccccc1C(=O)N/N=C/c1ccco1)c1ccc(Cl)cc1
EC50 [5]: 10.9 µM (active)
EC50 [6]: 0.192 µM (active)

CC(/C=C/c1ccco1)=N/NC(=O)c1ccccc1Cl
AC50 ([1]; read-out: AC50): 39.8 µM (inconclusive)
AC50 [11]: 31.6 µM (inconclusive)

Cn1cc(/C=N/n2cnc3sc4c(c3c2=O)CCCC4)c2ccccc21
AC50 [11]: 22.4 µM (inconclusive)
AC50 [10]: 39.8 µM (inconclusive)

CCc1[nH]nc2c1C(Cc1ccccc1)C(C#N)=C(N)O2 (configuration not stated)
EC50 [2]: 6.37 µM (active)
AC50 [3]: 22.3 µM (active)

Cc1c(O)cccc1C(=O)N[C@@H](CSc1ccccc1)[C@H](O)CN1C[C@H]2CCCC[C@H]2C[C@H]1C(=O)NC(C)(C)C [NELFINAVIR MESYLATE]
AC50 [9]: 4.22 µM (active)

Reference: ChEMBL document CHEMBL1201862, “PubChem BioAssay data set” (2004)
